Entries after “also recorded” stand apart in the source; their conditions may differ.
Tests used:
CD-1 or c57BL/6J mice = assay: In vivo IVIS analysis of FLuc circRNA LNPs (whole body and ex vivo organs); conditions: for spleen to liver ratios: ex vivo IVIS analysis of tissues
Protocol: (§1) Lipid Nanoparticles (LNPs) were formed using a Precision Nanosystems Ignite instrument with a ‘NextGen’ mixing chamber. […] A 3:1 aqueous to ethanol mixing ratio was used. The formulated LNP then were dialyzed in 1 L of water and exchanged 2 times over 18 hours. Dialyzed LNPs were filtered using 0.2 µm filter. Prior to in vivo dosing, LNPs were diluted in PBS. LNP sizes were determined by dynamic light scattering. A cuvette with 1 mL of 20 μg/mL LNPs in PBS (pH 7.4) was measured for Z-average using the Malvern Panalytical Zetasizer Pro. The Z-average and polydispersity index were recorded.
as §1, with “formulated LNPs were” for “formulated LNP”, “then” for “then were”
as §1, with “formulated LNPs were” for “formulated LNP”, “then” for “then were”, “of 1×PBS” for “of water”
Female CD-1 or female c57BL/6J mice ranging from 22-25 g were dosed at 0.5 mg/kg RNA intravenously. Six hours after injection, mice were injected intraperitoneally with 200 μL of D-luciferin at 15 mg/mL concentration. 5 minutes after injection, mice were anesthetized using isoflurane, and placed inside the IVIS Spectrum In Vivo Imaging System (Perkin Elmer) with dorsal side up. Post 10 minutes injection, mice were scanned for luminescence. Mice were euthanized and organs were extracted within 25 minutes of luciferin injection to scan for luminescence in liver, spleen, kidneys, lungs, and heart. Images (FIGS. 33A-B, 34A-B, 35A-B) were analyzed using Living Images (Perkin Elmer) software. Regions of interest were drawn to obtain flux and average radiance and analyzed for biodistribution of protein expression (FIG. 32A-B).

splenic immune cells = assay: In vivo Cre circRNA LNP transfection in Ai9 Cre reporter mice, tdTomato+ splenic immune cells; conditions: 0.5 mg/kg RNA intravenously, 48 hr
Protocol: Circular RNAs encoding Cre recombinase (Cre) are encapsulated into lipid nanoparticles as previously described. Female, 6-8 week old B6.Cg-Gt(ROSA)26Sortm9(CAG-tdTomato)Hze/J (Ai9) mice were dosed with lipid nanoparticles at 0.5 mg/kg RNA intravenously. Fluorescent tdTomato protein was transcribed and translated in Ai9 mice upon Cre recombination, meaning circular RNAs have been delivered to and translated in tdTomato+ cells. After 48 hr, mice were euthanized and the spleens were harvested, processed into a single cell suspension, and stained with various fluorophore-conjugated antibodies for immunophenotyping via flow cytometry.
Ai9 mice injected with PBS represented background tdTomato fluorescence.
FIG. 45C illustrates the proportion of additional splenic immune cell populations expressing tdTomato with Lipids 10a-27 and 10a-26 (mean+std. dev., n=3), which also include NK cells (NKp46+, TCR-B−), classical monocytes (CD11b+, Ly-6G−, Ly-6C_hi), nonclassical monocytes (CD11b+, Ly-6G−, Ly-6C_lo), neutrophils (CD11b+, Ly-6G+), and dendritic cells (CD11c+, MHC-II+).
Ai9 mice (B6.Cg-Gt(ROSA)26Sortm9(CAG-tdTomato)Hze/J, female, 6-8 weeks, n=3 per group) were injected i.v. with 0.5 mg/kg Cre circRNA LNPs or PBS. Ai9 mice transcribe and translate the fluorescent reporter tdTomato upon Cre recombination; meaning cells which are tdTomato+ have successfully been transfected with Cre circRNA. After 48 hours, mice were euthanized and their spleens were collected and manually processed into single cell suspensions. The splenocytes were stained for dead cells (LiveDead Fixable Aqua, Thermo) and with anti-mouse antibodies (TCR-B chain, BV421, H57-597; CD45, BV711, 30-F11; CD11b, BV785, ICRF44; NKp46, AF647, 29A1.4; CD19, APC/750, 6D5; TruStain FcX, 93; all antibodies from Biolegend) at 1:200 ratio. Flow cytometry was performed using an Attune Nxt Flow Cytometer (Thermo).

primary human T cells = assay: LNP transfection of primary human activated T cells with FLuc circRNA with or without ApoE3; type: cell-based; conditions: 4 independent donors
Protocol: Primary human T cells from independent donors were stimulated with aCD3/aCD28 and allowed to proliferate for 6 days in the presence of human serum and IL-2. Then, 100,000 cells were plated in a 96 well plate and LNPs containing circRNA coding for Firefly Luciferase (FLuc) were added to the cells at 200 ng RNA/well with or without Apolipoprotein E3 (ApoE3). After 24-hour incubation, luminescence was quantified using the Bright-Glo Luciferase Assay System (Promega) according to manufacturer's instructions and background luminescence from cells not treated with LNPs was subtracted. […] (See Example 70 for LNP formulation procesure, e.g., for 10a-27 (5.7A), 10a-26 (5.7A), 10a-27 (4.5D), and 10a-26 (4.5D) LNPs.)

## CCCCCCCCCOC(=O)CCCCCCCN(CCCCCCCC(=O)OC(CCCCCCCC)CCCCCCCC)CCCn1ccnc1 [Lipid 10a-53, heptadecan-9-yl 8-((3-(1H-imidazol-1-yl)propyl)(8-(nonyloxy)-8-oxooctyl)amino)octanoate]
CD-1 or c57BL/6J mice
  spleen to liver ratios: maintaining the desired spleen to liver ratios

## CCCCCCCCC(CCCCCC)C(=O)OCCCCCCN(CCCCCCOC(=O)C(CCCCCC)CCCCCCCC)CCCn1ccnc1C (stereo not drawn) [Lipid 10a-27, ((3-(2-methyl-1H-imidazol-1-yl)propyl)azanediyl)bis(hexane-6,1-diyl) bis(2-hexyldecanoate)]
Splenic immune cells
  delivery of circular RNAs to splenic immune cell subsets: effective at delivering circular RNAs to many splenic immune cell subsets
Splenic immune cells; 0.5 mg/kg
  proportion of splenic immune cells expressing tdTomato (transfection): significantly higher myeloid and T cell transfection; also recorded: transfect significantly more splenic immune cells
Primary human T cells
  Firefly luminescence: generally produced higher luminescence

## CCCCCCCCC(CCCCCC)C(=O)OCCCCCCN(CCCCCCOC(=O)C(CCCCCC)CCCCCCCC)CCCn1ccnc1 (stereo not drawn) [Lipid 10a-26, ((3-(1H-imidazol-1-yl)propyl)azanediyl)bis(hexane-6,1-diyl) bis(2-hexyldecanoate)]
CD-1 or c57BL/6J mice; 0.5 mg/kg RNA intravenously
  ex vivo IVIS analysis of tissues, overall expression: increased overall expression
CD-1 or c57BL/6J mice; 0.5 mg/kg RNA intravenously, six hours, compared to LNPs made with lipids 22-S14 and 93-S14
  whole-body total flux: increased whole-body total flux
CD-1 or c57BL/6J mice
  spleen to liver ratios: maintaining the desired spleen to liver ratios
Splenic immune cells
  delivery of circular RNAs to splenic immune cell subsets: effective at delivering circular RNAs to many splenic immune cell subsets
  proportion of splenic immune cells expressing tdTomato (transfection): significantly higher myeloid and T cell transfection

## CCCCCCCCCOC(=O)CCCCCCCN(CCO)CCCCCCCC(=O)OC(CCCCCCCC)CCCCCCCC [Lipid 10b-15]
CD-1 or c57BL/6J mice
  spleen to liver ratios: maintaining the desired spleen to liver ratios
Splenic immune cells
  delivery of circular RNAs to splenic immune cell subsets: effective at delivering circular RNAs to many splenic immune cell subsets

## CCCCCCCCCOC(=O)CCCCCCCN(CCCCCCCC(=O)OC(CCCCCCCC)CCCCCCCC)CCCn1ccnc1C [Lipid 10a-54, heptadecan-9-yl 8-((3-(2-methyl-1H-imidazol-1-yl)propyl)(8-(nonyloxy)-8-oxooctyl)amino)octanoate]
CD-1 or c57BL/6J mice
  spleen to liver ratios: maintaining the desired spleen to liver ratios
